Experimental findings from patent publication US20210267204A1, “MICROBIOCIDAL OXADIAZOLE DERIVATIVES” (SYNGENTA CROP PROTECTION AG, priority 2018, published 2021) are described below.

The test system of data set [1] is Puccinia recondita f. sp. tritici. Kind of data set: Fungicidal activity against Puccinia recondita f. sp. tritici / wheat / leaf disc curative (brown rust). It counts as in vivo. The conditions noted are these: foliar, 200 ppm in the applied formulation, wheat leaf segments cv. Kanzler, applied 1 day after inoculation, assessed 6 to 8 days after application, compared to untreated, read-out: disease control. As for the experimental part: Leaf disks or leaf segments of various plant species are cut from plants grown in a greenhouse. The cut leaf disks or segments are placed in multiwell plates (24-well format) onto water agar. The leaf disks are sprayed with a test solution before (preventative) or after (curative) inoculation. Compounds to be tested are prepared as DMSO solutions (max. 10 mg/mL) which are diluted to the appropriate concentration with 0.025% Tween20 just before spraying. The inoculated leaf disks or segments are incubated under defined conditions (temperature, relative humidity, light, etc.) according to the respective test system. A single evaluation of disease level is carried out 3 to 14 days after inoculation, depending on the pathosystem. Percent disease control relative to the untreated check leaf disks or segments is then calculated. Wheat leaf segments cv. Kanzler are placed on agar in multiwell plates (24-well format). The leaf segments are then inoculated with a spore suspension of the fungus. Plates were stored in darkness at 19° C. and 75% relative humidity. The formulated test compound diluted in water was applied 1 day after inoculation. The leaf segments were incubated at 19° C. and 75% relative humidity under a light regime of 12 hours light/12 hours darkness in a climate cabinet and the activity of a compound was assessed as percent disease control compared to untreated when an appropriate level of disease damage appears in untreated check leaf segments (6 to 8 days after application). The following compounds at 200 ppm in the applied formulation give at least 80% disease control in this test when compared to untreated control leaf disks under the same conditions, which show extensive disease development.

In a further data set the test system is Phakopsora pachyrhizi. Kind of data set: Fungicidal activity against Phakopsora pachyrhizi / soybean / leaf disc preventative (Asian soybean rust). It counts as in vivo. To be noted: foliar, 200 ppm in the applied formulation, soybean leaf disks, inoculated one day after application, assessed 12 to 14 days after application, compared to untreated, read-out: disease control. As for the experimental part: Leaf disks or leaf segments of various plant species are cut from plants grown in a greenhouse. The cut leaf disks or segments are placed in multiwell plates (24-well format) onto water agar. The leaf disks are sprayed with a test solution before (preventative) or after (curative) inoculation. Compounds to be tested are prepared as DMSO solutions (max. 10 mg/mL) which are diluted to the appropriate concentration with 0.025% Tween20 just before spraying. The inoculated leaf disks or segments are incubated under defined conditions (temperature, relative humidity, light, etc.) according to the respective test system. A single evaluation of disease level is carried out 3 to 14 days after inoculation, depending on the pathosystem. Percent disease control relative to the untreated check leaf disks or segments is then calculated. Soybean leaf disks are placed on water agar in multiwell plates (24-well format) and sprayed with the formulated test compound diluted in water. One day after application leaf discs are inoculated by spraying a spore suspension on the lower leaf surface. After an incubation period in a climate cabinet of 24-36 hours in darkness at 20° C. and 75% rh leaf disc are kept at 20° C. with 12 hours light/day and 75% rh. The activity of a compound is assessed as percent disease control compared to untreated when an appropriate level of disease damage appears in untreated check leaf disks (12 to 14 days after application). The following compounds at 200 ppm in the applied formulation give at least 80% disease control in this test when compared to untreated control leaf disks under the same conditions, which show extensive disease development.

Data set [2] has as its system Glomerella lagenarium (Colletotrichum lagenarium). Kind of data set: Fungicidal activity against Glomerella lagenarium (Colletotrichum lagenarium) liquid culture / cucumber / preventative (anthracnose). It is filed as cell-based. The conditions noted are these: Colletotrichum orbiculare; 20 ppm in the applied formulation; liquid culture in PDB, 24° C.; 3 to 4 days after application; compared to untreated control; read-out: disease control (inhibition of growth measured photometrically). On the procedure: Mycelia fragments or conidia suspensions of a fungus prepared either freshly from liquid cultures of the fungus or from cryogenic storage, are directly mixed into nutrient broth. DMSO solutions of the test compound (max. 10 mg/mL) are diluted with 0.025% Tween20 by a factor of 50 and 10 μL of this solution is pipetted into a microtiter plate (96-well format). The nutrient broth containing the fungal spores/mycelia fragments is then added to give an end concentration of the tested compound. The test plates are incubated in the dark at 24° C. and 96% relative humidity (rh). The inhibition of fungal growth is determined photometrically after 2 to 7 days, depending on the pathosystem, and percent antifungal activity relative to the untreated check is calculated. Conidia of the fungus from cryogenic storage are directly mixed into nutrient broth (PDB—potato dextrose broth). After placing a (DMSO) solution of test compound into a microtiter plate (96-well format), the nutrient broth containing the fungal spores is added. The test plates are incubated at 24° C. and the inhibition of growth is measured photometrically 3 to 4 days after application. The following compounds at 20 ppm in the applied formulation give at least 80% disease control in this test when compared to untreated control under the same conditions, which show extensive disease development.

Data set [3] has as its system Puccinia recondita f. sp. tritici. The data set is described as follows: Fungicidal activity against Puccinia recondita f. sp. tritici / wheat / leaf disc preventative (brown rust). It is filed as in vivo. The conditions noted are these: foliar, 200 ppm in the applied formulation, wheat leaf segments cv. Kanzler, inoculated 1 day after application, assessed 7 to 9 days after application, compared to untreated, read-out: disease control. As for the experimental part:
Leaf disks or leaf segments of various plant species are cut from plants grown in a greenhouse. The cut leaf disks or segments are placed in multiwell plates (24-well format) onto water agar. The leaf disks are sprayed with a test solution before (preventative) or after (curative) inoculation. Compounds to be tested are prepared as DMSO solutions (max. 10 mg/mL) which are diluted to the appropriate concentration with 0.025% Tween20 just before spraying. The inoculated leaf disks or segments are incubated under defined conditions (temperature, relative humidity, light, etc.) according to the respective test system. A single evaluation of disease level is carried out 3 to 14 days after inoculation, depending on the pathosystem. Percent disease control relative to the untreated check leaf disks or segments is then calculated. Wheat leaf segments cv. Kanzler were placed on agar in multiwell plates (24-well format) and sprayed with the formulated test compound diluted in water. The leaf disks were inoculated with a spore suspension of the fungus 1 day after application. The inoculated leaf segments were incubated at 19° C. and 75% relative humidity (rh) under a light regime of 12 hours light/12 hours darkness in a climate cabinet and the activity of a compound was assessed as percent disease control compared to untreated when an appropriate level of disease damage appears in untreated check leaf segments (7 to 9 days after application). The following compounds at 200 ppm in the applied formulation give at least 80% disease control in this test when compared to untreated control leaf disks under the same conditions, which show extensive disease development.

Regarding `CN(C)C(=S)c1ncn(Cc2ccc(-c3noc(C(F)(F)F)n3)s2)n1` [Compound 1.8, N,N-dimethyl-1-[[5-[5-(trifluoromethyl)-1,2,4-oxadiazol-3-yl]-2-thienyl]methyl]-1,2,4-triazole-3-carbothioamide], the melting point – broadly, the temperature of the solid-liquid transition – was in the range of 112 to 118 °C. For the same compound, the pest or weed control at 200 ppm in data set [1] was not below 80%. In the data set with Phakopsora pachyrhizi, the pest or weed control at 200 ppm is not below 80%. The inhibition (in general, how much of the control response was suppressed) at 20 ppm in data set [2] was not below 80%. The pest or weed control at 200 ppm in data set [3] is not below 80%.

On to `CN(C)C(=S)c1ncn(Cc2ccc(-c3noc(C(F)(F)F)n3)cc2)n1` [Compound 1.2, N,N-dimethyl-1-[[4-[5-(trifluoromethyl)-1,2,4-oxadiazol-3-yl]phenyl]methyl]-1,2,4-triazole-3-carbothioamide], for which the pest or weed control at 200 ppm (in data set [1]; in the data set with Phakopsora pachyrhizi; in data set [3]) was not below 80% throughout. The inhibition at 20 ppm in data set [2] was not below 80%.

Consider `FC(F)(F)c1nc(-c2ccc(Cn3cc(CNC(=S)C4CC4)cn3)s2)no1` [Compound 1.13, N-[[1-[[5-[5-(trifluoromethyl)-1,2,4-oxadiazol-3-yl]-2-thienyl]methyl]pyrazol-4-yl]methyl] cyclopropane carbothioamide], for which the melting point fell in the range of 165.5 to 167 °C. In addition, the pest or weed control at 200 ppm in data set [1] was not below 80%. Moreover, the pest or weed control at 200 ppm in the data set with Phakopsora pachyrhizi was not below 80%. Further, the inhibition at 20 ppm in data set [2] is not below 80%. Further, the pest or weed control at 200 ppm in data set [3] was not below 80%.

As for `CNC(=S)c1ncnn1Cc1ccc(-c2noc(C(F)(F)F)n2)cc1` [Compound 1.4, N-methyl-2-[[4-[5-(trifluoromethyl)-1,2,4-oxadiazol-3-yl]phenyl]methyl]-1,2,4-triazole-3-carbothioamide], the pest or weed control at 200 ppm (in data set [1]; in the data set with Phakopsora pachyrhizi; in data set [3]) was not below 80% in each case. The inhibition at 20 ppm in data set [2] was not below 80%.

For `CNC(=S)c1cnn(C(C)c2ccc(-c3noc(C(F)(F)F)n3)s2)c1` (centres unmarked) [Compound 1.9, N-methyl-1-[1-[5-[5-(trifluoromethyl)-1,2,4-oxadiazol-3-yl]-2-thienyl]ethyl]pyrazole-4-carbothioamide], the pest or weed control at 200 ppm (in data set [1]; in the data set with Phakopsora pachyrhizi; in data set [3]) was not below 80% each time. The inhibition at 20 ppm in data set [2] is not below 80%.

`FC(F)(F)c1nc(-c2ccc(Cn3ccnc3C(=S)NC3CC3)s2)no1` [Compound 1.11, N-cyclopropyl-1-[[5-[5-(trifluoromethyl)-1,2,4-oxadiazol-3-yl]-2-thienyl]methyl] imidazole-2-carbothioamide]: the pest or weed control at 200 ppm (in data set [1]; with Phakopsora pachyrhizi; in data set [3]) was not below 80% in each case. For the same compound, the inhibition at 20 ppm in data set [2] is not below 80%.

For `FC(F)(F)c1nc(-c2ccc(Cn3ccc(C(=S)NC4CC4)n3)cc2)no1` [Compound 1.3, N-cyclopropyl-1-[[4-[5-(trifluoromethyl)-1,2,4-oxadiazol-3-yl]phenyl]methyl] pyrazole-3-carbothioamide], the pest or weed control at 200 ppm (in data set [1]; with Phakopsora pachyrhizi; in data set [3]) was not below 80% throughout. Also, in data set [2], the inhibition at 20 ppm is not below 80%.

With `CCCNC(=S)c1nccn1Cc1ccc(-c2noc(C(F)(F)F)n2)s1` [Compound 1.15, N-propyl-1-[[5-[5-(trifluoromethyl)-1,2,4-oxadiazol-3-yl]-2-thienyl]methyl] imidazole-2-carbothioamide], the pest or weed control at 200 ppm (in data set [1]; in the data set on Phakopsora pachyrhizi; in data set [3]) was not below 80% throughout. Moreover, the inhibition at 20 ppm in data set [2] was not below 80%.

Regarding `CCONC(=S)c1ccn(Cc2ccc(-c3noc(C(F)(F)F)n3)s2)n1` [Compound 1.7, N-ethoxy-1-[[5-[5-(trifluoromethyl)-1,2,4-oxadiazol-3-yl]-2-thienyl]methyl]pyrazole-3-carbothioamide], the pest or weed control at 200 ppm (in data set [1]; in the data set on Phakopsora pachyrhizi; in data set [3]) was not below 80% each time. For the same compound, the inhibition at 20 ppm in data set [2] is not below 80%.
